Test results taken from patent US9809598B2 (Merck Patent GmbH, priority 2014, dated 2017).
Structures can show the parent of a compound that is named as a salt.

Columns and labels:
TNKS1 = target: T1, TNKS1 (Homo sapiens, UniProt O95271); experiment: TNKS1 activity ELISA (autoparsylation assay); format: biochemical; conditions: GST-tagged Tnks-1 (1023-1327 aa)
T1 construct: GST-tagged Tnks-1 (1023-1327 aa, prepared in-house); made in house
Procedure: (§1) Description of the TNKS1 and TNKS2 ELISA Assay
(§2) Biochemical Activity Testing of TNKS 1 and 2: Activity ELISA (Autoparsylation Assay)
(§3) For analysis of autoparsylation activity of TNKS 1 and 2 an activity ELISA iss performed: In the first step GST tagged TNKS is captured on a Glutathione coated plate. Then the activity assay with biotinylated NAD is performed in the absence/presence of the compounds. During the enzymatic reaction GST tagged TNKS transfers biotinylated ADP-ribose to itself from biotinylated NAD as co-substrate. For the detection streptavidin-HRP conjugate is added that binds to the biotinylated TNKS and is thereby captured to the plates. The amount of biotinylated resp. autoparsylated TNKS is detected with a luminescence substrate for HRP. The level of the luminescence signal correlats directly with the amount of autoparsylated TNKS and therefore with activity of TNKS.
(§4) The activity ELISA is performed in 384 well Glutathione coated microtiter plates (Express capture Glutathione coated plate, Biocat, Heidelberg, Germany). The plates are pre-equilibrated with PBS. […] The plates are washed 3 times with PBS-Tween-20. The wells are blocked by incubation at room temperature for 20 minutes with 50 μl blocking buffer (PBS, 0.05% Tween-20, 0.5% BSA). Afterwards the plates are washed 3 times with PBS-Tween-20. […] The reaction is stopped by 3 times washing with PBS-Tween-20. For the detection 50 μl of 20 ng/μl Streptavidin, HRP conjugate (MoBiTec, Göttingen, Germany) in PBS/0.05% Tween-20/0.01% BSA are added and the plates are incubated for 30 minutes at room temperature. After three times washing with PBS-Tween-20 50 μl of SuperSignal ELISA Femto Maximum sensitivity substrate solution (ThermoFisherScientific (Pierce), Bonn, Germany) are added. Following a 1 minute incubation at room temperature luminescence signals are measured with an Envision multimode reader (Perkin Elmer LAS Germany GmbH) at 700 nm. The full value used is the inhibitor-free reaction. […] The inhibitory values (IC50) are determined using either the program Symyx Assay Explorer® or Condosseo® from GeneData.

Tankyrases = conditions: read-out: EC50 [M] TNKS cellular assay; DLD1 cells, 24 hours, Axin2 increase
TNKS2 = target: T2, TNKS2 (Homo sapiens, UniProt Q9H2K2); experiment: TNKS2 activity ELISA (autoparsylation assay); format: biochemical; conditions: GST-tagged Tnks-2 (873-1166 aa); read-out: IC50 [M] TNKS2 ELISA
T2 construct: GST-tagged Tnks-2 (873-1166 aa, prepared in-house); made in house
T2 sequence (Q9H2K2 873-1166): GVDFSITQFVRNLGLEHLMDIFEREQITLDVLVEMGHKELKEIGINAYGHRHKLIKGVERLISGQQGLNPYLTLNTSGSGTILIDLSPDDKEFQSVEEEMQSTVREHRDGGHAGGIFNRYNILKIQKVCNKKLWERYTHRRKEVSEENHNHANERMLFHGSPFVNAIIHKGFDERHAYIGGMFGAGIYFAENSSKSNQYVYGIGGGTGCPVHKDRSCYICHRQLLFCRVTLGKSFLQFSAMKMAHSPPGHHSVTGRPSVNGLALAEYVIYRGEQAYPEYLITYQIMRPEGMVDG
Procedure: as §1, §2, §3, §4

T1 sequence (O95271 1023-1327): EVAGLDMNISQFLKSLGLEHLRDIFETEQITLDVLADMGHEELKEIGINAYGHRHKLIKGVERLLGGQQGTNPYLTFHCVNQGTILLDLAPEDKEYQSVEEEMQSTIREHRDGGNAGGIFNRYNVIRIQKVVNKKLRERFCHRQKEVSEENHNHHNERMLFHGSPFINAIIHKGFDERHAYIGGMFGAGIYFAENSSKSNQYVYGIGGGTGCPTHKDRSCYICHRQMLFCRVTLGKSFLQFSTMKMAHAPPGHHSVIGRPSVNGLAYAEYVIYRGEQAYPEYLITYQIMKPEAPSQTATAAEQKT

Row | SMILES | IC50 (TNKS1) [nM] | EC50 (Tankyrases) [M] | IC50 (TNKS2) [M]
1 | CCc1cc(=O)[nH]c(CCCC(=O)N2CCC(C(=O)c3ccc(OC)cc3)CC2)n1 [Compound C251, 6-Ethyl-2-{4-[4-(4-methoxy-benzoyl)-piperidin-1-yl]-4-oxo-butyl}-3H-pyrimidin-4-one] | 7.8 | 7e-08 | 2.9e-09
2 | CC(C)c1cc(=O)[nH]c(CCCC(=O)N2CCC(C(=O)c3ccc(F)cc3)CC2)n1 [Compound C255, 2-{4-[4-(4-Fluorobenzoyl)-1-piperidyl]-4-oxo-butyl}-4-isopropyl-1H-pyrimidin-6-one trifluoroacetate] | 110 | 2.7e-06 | 4.9e-08
3 | COc1ccc(C(=O)C2CCN(C(=O)CCCc3nc(C)c(C)c(=O)[nH]3)CC2)cn1 [Compound C241, 2-{4-[4-(6-Methoxy-pyridine-3-carbonyl)-piperidin-1-yl]-4-oxo-butyl}-5,6-dimethyl-3H-pyrimidin-4-one] | 11 | 3.5e-08 | 4.9e-09
4 | COc1ccc(C(=O)C2CCN(C(=O)CCCc3cn4cccc4c(=O)[nH]3)CC2)cc1C [Compound C4, 3-{4-[4-(4-Methoxy-3-methyl-benzoyl)-piperidin-1-yl]-4-oxo-butyl}-2H-pyrrolo[1,2-a]pyrazin-1-one] | 0.14 | 3.4e-10 | 1.5e-10
5 | CCc1cc(=O)[nH]c(CCCC(=O)N2CCC(C(=O)c3ccc(OC)nc3)CC2)n1 [Compound C253, 6-Ethyl-2-{4-[4-(6-methoxy-pyridine-3-carbonyl)-piperidin-1-yl]-4-oxo-butyl}-3H-pyrimidin-4-one] | 31 | 7e-07 | 1.9e-08
6 | CCn1cc(C(=O)C2CCN(C(=O)CCCc3nc4c(c(=O)[nH]3)COCC4)CC2)cn1 [Compound C228, 2-{4-[4-(1-Ethyl-1H-pyrazole-4-carbonyl)-piperidin-1-yl]-4-oxo-butyl}-3,5,7,8-tetrahydro-pyrano[4,3-d]pyrimidin-4-one] | 14 | 2.9e-06 | 2.2e-09
7 | COc1ccc(C(=O)C2CCN(C(=O)CCCc3nc4c(C)scc4c(=O)[nH]3)CC2)cn1 [Compound C114] | 0.68 |  | 
8 | COc1ccc(C(=O)C2CCN(C(=O)CCCc3nc(C(C)C)cc(=O)[nH]3)CC2)cn1 [Compound C256, 4-Isopropyl-2-{4-[4-(6-methoxypyridine-3-carbonyl)-1-piperidyl]-4-oxo-butyl}-1H-pyrimidin-6-one trifluoroacetate] | 160 | 2.6e-06 | 6.5e-08
9 | COc1ccc(C(=O)C2CCN(C(=O)CCCc3noc4ccccc34)CC2)cc1 [Compound C258, 4-(1,2-Benzoxazol-3-yl)-1-[4-(4-methoxybenzoyl)-1-piperidyl]butan-1-one] | 150 |  | 9.5e-08
10 | O=C(c1ccc(F)cc1)C1CCN(C(=O)CCCc2noc3ccccc23)CC1 [Compound C259, 4-(1,2-Benzoxazol-3-yl)-1-[4-(4-fluorobenzoyl)-1-piperidyl]butan-1-one] | 730 |  | 4.6e-07
11 | CC(F)(F)c1ccc(C(=O)C2CCN(C(=O)CCCc3nc4c(c(=O)[nH]3)COCC4)CC2)cc1 [Compound C263, 2-{4-{4-[4-(1,1-Difluoroethyl)benzoyl]-1-piperidyl}-4-oxo-butyl}-3,5,7,8-tetra-hydropyrano[4,3-d]pyrimidin-4-one] | 5.1 |  | 3.3e-10
12 | CCc1cc(=O)[nH]c(CCCC(=O)N2CCC(C(=O)c3ccc(F)cc3)CC2)n1 [Compound C252, 6-Ethyl-2-{4-[4-(4-fluoro-benzoyl)-piperidin-1-yl]-4-oxo-butyl}-3H-pyrimidin-4-one] | 35 |  | 1.7e-08
13 | O=C(c1ccc(F)c(F)c1)C1CCN(C(=O)CCCc2nc3c(c(=O)[nH]2)COCC3)CC1 [Compound C262, 2-{4-[4-(3,4-Difluorobenzoyl)-1-piperidyl]-4-oxo-butyl}-3,5,7,8-tetrahydro-pyrano[4,3-d]pyrimidin-4-one] | 7.1 |  | 1.2e-09
